ChEMBL document CHEMBL1130787, “Synthesis and in vitro antimalarial activity of sulfone endoperoxides” (Bioorg Med Chem Lett, 1998)

system: Plasmodium falciparum; experiment: In vitro antimalarial activity against chloroquine-sensitive Plasmodium falciparum NF 54; type: functional, organism-based

Compound | IC50
CCOC(=O)C(=O)OC1(C)CCC2CC1OO[C@@]2(C)CS(=O)(=O)c1ccccc1 (some centres undefined) | 170 nM
CC1(O)CCC2CC1OO[C@]2(C)CS(=O)(=O)c1ccccc1 (some centres undefined) | 89 nM
CC(=O)OC1(C)CCC2CC1OO[C@]2(C)CS(=O)(=O)c1ccccc1 (some centres undefined) | 17 nM
CC1(O)CCC2CC1OO[C@@]2(C)CS(=O)(=O)c1ccccc1 (some centres undefined) | 55 nM
CC1(OC(=O)C(=O)N(Cc2ccccc2)Cc2ccccc2)CCC2CC1OO[C@@]2(C)CS(=O)(=O)c1ccccc1 (some centres undefined) | 21 nM
CC(=O)OC1(C)CCC2CC1OO[C@@]2(C)CS(=O)(=O)c1ccccc1 (some centres undefined) | 17 nM
C[C@@H]1CC[C@H]2[C@@H](C)C(=O)O[C@@H]3O[C@@]4(C)CC[C@@H]1[C@]32OO4 [ARTEMISININ] | 9.3 nM
CC1(OC(=O)C(=O)N(Cc2ccccc2)Cc2ccccc2)CCC2CC1OO[C@]2(C)CS(=O)(=O)c1ccccc1 (some centres undefined) | 81 nM
COc1ccc(COC2(C)CCC3CC2OO[C@@]3(C)CS(=O)(=O)c2ccccc2)cc1 (some centres undefined) | 14 nM
CC(=O)CC(=O)OC1(C)CCC2CC1OO[C@]2(C)CS(=O)(=O)c1ccccc1 (some centres undefined) | 73 nM
CC(=O)CC(=O)OC1(C)CCC2CC1OO[C@@]2(C)CS(=O)(=O)c1ccccc1 (some centres undefined) | 46 nM
C[C@@H]1C(=O)C[C@H]2CC1OO[C@@]2(C)/C=C\c1ccc(C(F)(F)F)cc1C(F)(F)F (single isomer, unassigned) [ARTEFLENE] | 71 nM
CC1(CSc2ccccc2)OOC2CC1CC[C@@]2(C)O.CC1(CSc2ccccc2)OOC2CC1CC[C@]2(C)O (some centres undefined) | > 2500 nM
CCOC(=O)C(=O)OC1(C)CCC2CC1OO[C@]2(C)CS(=O)(=O)c1ccccc1 (some centres undefined) | 140 nM
